Laboratory results: PubChem BioAssay (NCI)
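Test compounds were applied to cells in 96-well plates for 48 hours at 5 doses. The concentration for 50% growth inhibition is given as GI50. TGI: total growth inhibition.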

Assays:
Assay in all cases: NCI-60 cell line screen, 48 h
[1] = test system: SN12C renal
[2] = test system: HOP-18 NSCLC
[3] = test system: OVCAR-8 ovarian
[4] = test system: LOX IMVI melanoma
[5] = test system: NCI-H23 lung
[6] = test system: XF 498 CNS
[7] = test system: SW-620 colon
[8] = test system: U251 CNS
[9] = test system: DLD-1 colon
[10] = test system: HOP-92 NSCLC

Compound	TGI [1]	TGI [2]	TGI [3]	TGI [4]	TGI [5]	TGI [6]	TGI [7]	TGI [8]	TGI [9]	TGI [10]	GI50 [1]	GI50 [2]	GI50 [3]	GI50 [4]	GI50 [5]	GI50 [8]	GI50 [9]	GI50 [10]	GI50 [7]	GI50 [6]
COc1ccc(/C(Cl)=C(\C=O)c2ccc([N+](=O)[O-])cc2)cc1	49.1 µM	> 100 µM	38.3 µM	> 48.1 µM	50.6 µM	40.4 µM	> 49.1 µM	19.4 µM	63.1 µM	31.2 µM										
O=c1[nH]c(=O)n(C2OC(CO)C(O)C(O)C2O)cc1F (stereo not drawn)	> 100 µM	> 100 µM	> 100 µM	> 100 µM	> 100 µM	> 100 µM	> 100 µM	> 100 µM	> 100 µM	> 100 µM										
CN(C)C(c1ccccc1)C(O)c1ccccc1 (stereo not drawn)	> 100 µM	> 100 µM		> 100 µM	> 100 µM	> 100 µM	> 100 µM	> 100 µM	> 100 µM											
c1cc2c(ncc3cscc32)s1	> 100 µM		> 100 µM	> 100 µM	> 100 µM	> 100 µM	> 100 µM	> 100 µM	> 100 µM	> 100 µM										
COC1=CC2(C=CC1=O)c1cc(OC)c(OC)cc1CCN2C(=O)c1ccccc1 (stereo not drawn)	> 100 µM	> 100 µM	> 100 µM	> 100 µM	> 100 µM		> 100 µM	> 100 µM	> 100 µM	> 100 µM										
Cc1ccc(-c2cc(=O)c3cc(C)c(C)c(C(=O)O)c3o2)cc1C	> 100 µM	> 100 µM	> 100 µM	> 100 µM	> 100 µM		> 100 µM	> 100 µM	> 100 µM	> 100 µM										
O=C(/C=C/c1c(O)ccc2ccccc12)c1ccccc1	> 100 µM	> 100 µM	> 100 µM	44.9 µM	> 100 µM	> 100 µM	83.7 µM	> 100 µM	> 100 µM	> 100 µM										
Fc1ccc(C2SCc3nc4ccccc4n32)cc1Cl (stereo not drawn)	35.7 µM		48.1 µM	40.3 µM	58.1 µM	31.7 µM	> 100 µM	44.6 µM	> 100 µM	30.1 µM										
Cc1[nH]c2ccccc2c1C1Cc2ccccc2N1C(=O)/C(Cl)=C/c1ccccc1 (stereo not drawn)	> 100 µM	> 100 µM	> 100 µM	> 100 µM	> 100 µM	> 100 µM	> 100 µM	> 100 µM	> 100 µM	> 100 µM										
CC(C)c1ccc(C(c2ccc(OCC(=O)O)cc2)c2ccc(C(C)C)cc(=O)c2O)c(O)c(=O)c1	24.3 µM	55.6 µM	58.3 µM	14.8 µM	20.4 µM	9.95 µM	> 100 µM	24.9 µM	21.3 µM	0.956 µM										
N#CCc1ccc(C(C#N)/C(CCCC(=O)Nc2cccc([N+](=O)[O-])c2)=N/NC(N)=S)cc1 (stereo not drawn)	> 100 µM	> 100 µM		> 100 µM	> 100 µM		> 100 µM	> 100 µM	> 100 µM	> 100 µM										
Cc1ccc2c(c1)CN(C(=O)CCC(=O)OCc1ccccc1)c1ccc(C)cc1CN2C(=O)CCC(=O)OCc1ccccc1	> 100 µM	> 100 µM	> 100 µM	> 100 µM	> 100 µM		> 100 µM	> 100 µM	> 100 µM	> 100 µM										
CS(=O)(=O)c1cc(=O)c2ccccc2s1	22.2 µM		6.22 µM	17.6 µM	24.7 µM	4.4 µM	3.4 µM	37.6 µM	4.21 µM	3.71 µM										
CC1=N/C(=C\c2cccc([N+](=O)[O-])c2)C(=O)O1	> 100 µM	> 100 µM	> 100 µM		> 100 µM		> 100 µM	> 100 µM	> 100 µM	> 100 µM										
CCOc1ccc2c(c1)[n+]([O-])c(-c1nc3ccccc3s1)c(N)[n+]2[O-]	> 100 µM	92.1 µM	> 100 µM	> 100 µM	> 100 µM	86.6 µM	> 100 µM	> 100 µM	> 100 µM	70.1 µM										
COc1cc2c(c(OC)c1)C1(CC(CC#N)C2)SCCS1 (stereo not drawn)	> 100 µM	> 100 µM	> 100 µM				> 100 µM	> 100 µM	> 100 µM											
COc1ccc2c3c(coc13)C(CCC(=O)O)CC2 (stereo not drawn)	> 100 µM	> 100 µM	> 100 µM	> 100 µM	> 100 µM	> 100 µM	> 100 µM	> 100 µM	> 100 µM											
COC(=O)C(=O)C(C(=O)C=C(C)C)C(=O)C(=O)Nc1ccc(C)cc1C (stereo not drawn)	> 100 µM	> 100 µM	> 100 µM	> 100 µM	> 100 µM	> 100 µM	> 100 µM	> 100 µM	> 100 µM											
CCCS(=O)(=O)/C(=C(\c1ccc(Br)cc1)S(=O)(=O)CCC)c1ccc(Br)cc1	> 10 µM	> 10 µM	> 10 µM	> 10 µM	> 10 µM	> 10 µM	> 10 µM	> 10 µM	> 10 µM	> 10 µM										
Nc1ncn(C2CC(O)C(CO)O2)c(=O)n1 (stereo not drawn)	> 375 µM	> 260 µM	370 µM	> 375 µM	> 375 µM	> 80.8 µM	373 µM	> 307 µM	> 375 µM	> 375 µM										
CC(=O)O.[Au].c1ccc([PH+](c2ccccc2)c2ccccc2)cc1	8.85 µM	3.86 µM	26.3 µM	7.98 µM	6.89 µM			7.49 µM	4.4 µM	5.1 µM	2.94 µM	2.14 µM	5.45 µM	2.54 µM	2.36 µM	2.57 µM	1.9 µM	3.02 µM		
Cc1nc2ccccc2c(=O)n1-c1ccccc1F	> 100 µM	> 100 µM	> 100 µM	> 100 µM	> 100 µM		> 100 µM	> 100 µM	> 100 µM	> 100 µM										
CC(C)c1cc2c(O)c(c1)Cc1cc(C(C)C)cc(c1O)Cc1cc(C(C)C)cc(c1O)Cc1cc(C(C)C)cc(c1O)C2		> 100 µM	> 100 µM	> 100 µM	> 100 µM	> 100 µM	> 100 µM	> 100 µM	> 100 µM	> 100 µM										
OC/C=C(\I)CCCOCOCc1ccccc1	> 100 µM		> 100 µM	45.9 µM	> 100 µM	45.8 µM	> 100 µM	64 µM	> 100 µM	53.4 µM										
N.N.O=C([O-])P(=O)([O-])[O-].[Na+].[Pt+4]	> 100 µM	> 100 µM	> 100 µM		> 100 µM		> 100 µM	> 100 µM	> 100 µM		> 100 µM	> 100 µM	> 100 µM		> 100 µM	> 100 µM	> 100 µM		> 100 µM	
N#C/C(=C\c1cc2ccccc2c2ccccc12)c1ccccc1	> 95.8 µM	> 61.2 µM	> 100 µM	> 100 µM	> 95 µM	12.5 µM	24.9 µM	36.8 µM	> 90.2 µM	> 71.7 µM										
c1cc[c]([Pb]([c]2ccccc2)[c]2ccccc2)cc1	22.3 µM	50.8 µM	72.5 µM		15.8 µM	42.7 µM	57.1 µM	23.9 µM	29.6 µM	47.8 µM	8.17 µM	16.8 µM	12.4 µM	3.24 µM	3.34 µM	11.3 µM	11.9 µM	10.7 µM	21.2 µM	23.9 µM
CC(=O)N1C/C(=C\c2ccc(N(C)C)cc2)C(=O)/C(=C/c2ccc(N(C)C)cc2)C1	> 100 µM	> 100 µM	> 100 µM	> 100 µM	> 100 µM	> 100 µM	> 100 µM	> 100 µM	> 100 µM	> 100 µM										
CCCCOC(=O)NC(=O)c1cn(C2CCCCC2)c(=O)[nH]c1=O	> 100 µM	49.4 µM	> 100 µM	> 100 µM	> 100 µM	> 100 µM	> 100 µM	76.1 µM	> 100 µM	55.1 µM										
